{"source": "patent US5157052A", "about": "“Method for inhibiting IgE production” (priority 1990, dated 1992)", "key": {"IgD": {"tested_on": "IgD", "test": "Splenocyte cell surface density/distribution (FACS): IgD", "format": "in vivo, mouse (Balb/c female)", "description": "(§1) One group of 4 unstimulated Balb/c female mice is injected with PBS (Group A). Another (Group B) is injected with 20 μg (±) methyl 11α,16-dihydroxy-16-methyl-9-oxoprosta-5Z,13E-dien-1-oate as in Example 13. […] A 3 cm incision is made with a scalpel above the left hip, and the spleen is cut free from adjoining tissue and placed in a 100 mn plastic culture dish containing 10 ml PBS. The splenic cells are then made into a suspension, by rubbing the spleens between the rough, frosted ends of microscope slides repeatedly until the only remaining particulate matter is connective tissue. Cells are transferred to a 15 ml conical polystyrene tube and centrifuged in a centrifuge at 1200 rpm for 5 minutes. The supernatant is discarded by aspiration and the cell pellet is resuspended in 10 ml PBS, then centrifuged at 1200 rpm for 5 minutes. The supernatant is aspirated and the cell pellet is resuspended in 15 mM Tris, 140 mM Ammonium Chloride, to lyse red blood cells. After incubating at room temperature for 10 minutes the cell suspension is centrifuged at 1200 rpm for 10 minutes. The supernatant is discarded and the cell pellet is resuspended in 10 ml FACS Buffer (PBS containing 0.1% BSA and 0.1% Sodium Azide). The cell suspension is filtered through sterile glass wool plugged in the top of a pasteur pipet. Cells in the flow through are counted using a hemacytometer, then the cell suspension is centrifuged at 1200 rpm for 5 minutes. The supernatant is discarded and the cell pellet is resuspended in a volume of FACS Buffer that will yield 4×10^7 cells/ml. 10 μl (4×10^5 cells) is added to each well of a 96-well V-bottom plate. 25 μl of diluted monoclonal antibody directed against splenocyte cell surface proteins is added to each well: Major Histocompatability Complex (MHC) Class II (M5114, ATCC, Rockville Md.), MHC Class I (M1/42, ATCC), Anti-IgD (JA12.5, ATCC, Rockville, Md.), Thymocyte (Thy)-1 (JIJ, ATCC), B220 (14.8, ATCC), Kappa light chain (187, ATCC), IL-2 Receptor (7D4, ATCC), Lyt-1 (7.313, ATCC) and CD23 (biotinylated B3B4) and incubated on ice for 30 minutes. 100 μl 10% BSA 0.1% sodium azide is added to each well, then the plates are centrifuged at 1200 rpm for 10 minutes. The liquid is removed by aspiration and the cell pellets are resuspended in 100 μl FACS Buffer, and centrifuged at 1200 rpm for 5 minutes. […] Samples are transferred to individual tubes and 10,000 cells are analyzed. Using the Lysis software (Becton Dickinson, Mountain View, Calif.) the mean channel log fluorescence and percent positive cells are determined for the entire cell population. […]"}, "CD23": {"tested_on": "CD23", "test": "Splenocyte cell surface density/distribution (FACS): CD23", "format": "in vivo, mouse (Balb/c female)", "description": "as §1"}}, "data": [{"compound": "CCCCC(C)(O)C/C=C/[C@H]1[C@H](O)CC(=O)[C@@H]1C/C=C\\CCCC(=O)OC", "note": "(mixture of isomers) [(±) methyl 11α,16-dihydroxy-16-methyl-9-oxoprosta-5Z,13E-dien-1-oate]", "values": [{"measurement": "Percentage Positive Cells", "setting": "IgD; anti-IgD stimulated mice, 20 μg days 3 and 4, day 7 (PBS 21.9)", "result": "15.6 ± 8.4", "unit": "%"}, {"measurement": "Mean Channel Log Fluorescence", "setting": "IgD; anti-IgD stimulated mice, 20 μg days 3 and 4, day 7 (PBS 107)", "result": "98 ± 0.5"}, {"measurement": "Mean Channel Log Fluorescence", "setting": "IgD; unstimulated mice, 20 μg (PBS 130)", "result": "132 ± 3.5"}, {"measurement": "Percentage Positive Cells", "setting": "IgD; unstimulated mice, 20 μg (PBS printed 1.4)", "result": "51.8 ± 3.7", "unit": "%"}, {"measurement": "Percentage Positive Cells", "setting": "CD23; anti-IgD stimulated mice, 20 μg days 3 and 4, day 7 (PBS 20.4)", "result": "11.6 ± 1.6", "unit": "%"}, {"measurement": "Mean Channel Log Fluorescence", "setting": "CD23; anti-IgD stimulated mice, 20 μg days 3 and 4, day 7 (PBS 99)", "result": "95 ± 1.5"}, {"measurement": "Percentage Positive Cells", "setting": "CD23; unstimulated mice, 20 μg (PBS 46.6)", "result": "44.2 ± 6.6", "unit": "%"}, {"measurement": "Mean Channel Log Fluorescence", "setting": "CD23; unstimulated mice, 20 μg (PBS 95)", "result": "94 ± 3.2"}]}]}
